What all share (assay): NCI anticancer screen, dose series, 48 h
Assay [1] concerns KM12 colon.
The subject of assay [2] is SK-OV-3 ovarian.
Assay [3] concerns CAKI-1 renal.
The test system of assay [4] is A549 NSCLC.
Assay [5] deals with UACC-62 melanoma.
Assay [6] relates to CCRF-CEM leukemia.
For assay [7], the system named is UO-31 renal.
The test system of assay [8] is PC-3 prostate.
In assay [9] the test system is SF-295 CNS.
Assay [10] deals with MCF7 breast.

Values joined by “and” are separate entries in the source; they are usually repeats but may differ in a detail not shown here. Equal entries are not always repeated.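 Briefly, cells in 96-well plates were exposed to five compound concentrations for 48 h, and endpoints were estimated by linear interpolation. The concentration for 50% growth inhibition is given as GI50. TGI is the concentration that stops growth completely.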 Some results are limits rather than exact numbers.

`O=C(CSc1nc2ccc([N+](=O)[O-])cc2[nH]1)Nc1cccc(Cl)c1`: the GI50 in [1] is 3.1 µM; in assay [2] it was 2.03 µM; in [3], 2.3 µM; in assay [4], 2.72 µM; in [5], 1.59 µM; in assay [6], 3.1 µM. Moreover, the GI50 in [7] is 1.97 µM; in assay [8], 2.63 µM; in assay [9] it was 2.07 µM; in [10] it was 2.41 µM. The TGI in [1] is 13.8 µM; in assay [2], 6.45 µM; in [3], 10.4 µM; in assay [4], 15.9 µM; in assay [5], 10.3 µM; in assay [6], over 100 µM. Further, the TGI in assay [7] came out at 9.99 µM; in assay [8], 16.1 µM; in [9], 6.8 µM; in assay [10], 10.5 µM.
As to `COc1ccc(S(=O)(=O)N2CCN(C(=O)OCc3ccccc3)CC2C(=O)NO)cc1` (stereo not given), the GI50 is over 25 µM in assay [1]; over 25 µM in assay [2]; 10.1 µM in assay [3]; over 25 µM in assay [4]; over 25 µM in [5]; 6.2 µM in [6]. For the same molecule, the GI50 in assay [7] is 17 µM; in assay [8], 17.6 µM; in assay [9], over 25 µM; in [10], 13 µM. The TGI in assay [1], in assay [2], in assay [3], in [4], in assay [5] and in assay [6] was over 25 µM each time. For the same molecule, the TGI in assay [7], in assay [8], in assay [9] and in [10] was over 25 µM throughout.
Regarding `CS(=O)(=O)N1CCN(Cc2cc3nc(-c4cccc5[nH]ncc45)nc(N4CCOCC4)c3s2)CC1`, the GI50 in [1] was 1.36 µM and 0.754 µM; in [2] it was 0.243 µM and 0.145 µM; in assay [3] it was 0.419 µM and 0.209 µM; in assay [4], 0.477 µM and 0.43 µM; in assay [6] it was 2.3 µM and 0.909 µM; in assay [7], 0.174 µM and 0.105 µM. In addition, the GI50 was 0.218 µM and 0.26 µM in assay [8]; 0.262 µM and 0.318 µM in assay [9]; 0.0766 µM and 0.083 µM in [10]. Further, the TGI is over 100 µM in assay [1]; 3.84 µM and 1.68 µM in assay [2]; 3.92 µM and > 3.95 µM in assay [3]; 3.71 µM and > 5.34 µM in assay [4]; 0.244 µM in assay [5]; over 100 µM in [6]. Further, the TGI in assay [7] is over 4.03 µM; in [8] it was over 100 µM; in [9] it was 3.11 µM and 3.62 µM; in [10] it was over 100 µM.
Regarding `NC(=O)c1nnn(Cc2cc(Cl)c(C(=O)c3ccc(Cl)cc3)c(Cl)c2)c1N`, the GI50 in assay [1] is over 9.09 µM; in [2], over 9.09 µM; in assay [4], over 9.09 µM; in assay [5], over 9.09 µM; in assay [6] it was 7.76 µM; in [7], over 9.09 µM. Also, the TGI in [1] is > 9.09 µM and 35 µM; in assay [2], over 52.9 µM; in assay [3], 25.5 µM; in assay [4], > 9.09 µM and 37.1 µM; in assay [5], > 9.09 µM and 36.4 µM; in assay [6] it was over 100 µM. Moreover, the TGI in assay [7] was > 9.09 µM and 42.1 µM; in [8], over 50.2 µM; in assay [9], > 9.09 µM and 34 µM; in assay [10], 32.9 µM.
For `CN(C)CCCNC(=O)c1cc(NC(=O)CCNC(=O)c2ccc3c(c2)C(=O)c2ccccc2C3=O)cn1C`, the GI50 in assay [1] was 40.8 µM; in [2], over 100 µM; in assay [3], over 100 µM; in assay [4], over 100 µM; in assay [5] it was over 100 µM; in assay [6], 64.1 µM. For the same molecule, the GI50 is over 100 µM in assay [7], over 100 µM in assay [8], over 100 µM in assay [9] and 20.1 µM in [10]. The TGI in assay [1], in [2], in [3], in assay [4], in assay [5] and in assay [6] was over 100 µM each time. The TGI is over 100 µM in assay [7], over 100 µM in assay [8], over 100 µM in [9] and 56.4 µM in [10].
Consider `Cc1cc(Cl)ccc1NC(=O)/C(Cl)=C(/Cl)C(=O)O`, for which the TGI in [1] is 82.8 µM; in assay [2], over 100 µM; in assay [3], 37.6 µM; in [4], over 100 µM; in assay [5], 48.8 µM; in [6] it was over 100 µM. The TGI in assay [7] is over 100 µM; in assay [8] it was 54.5 µM; in assay [9], over 100 µM; in [10], 50.5 µM.
With `CC(C)c1ccc2c(N=Nc3ccc(S(N)(=O)=O)cc3)c(O)[nH]c2c1`, the GI50 in [1] was 1.24 µM; in assay [2], 7.22 µM; in assay [3] it was 24.9 µM; in [4], over 14.8 µM; in assay [5] it was over 25 µM; in assay [6], over 25 µM. In addition, the GI50 is over 11.9 µM in assay [7], over 17.1 µM in assay [8], 11.2 µM in [9] and over 14.7 µM in assay [10]. The TGI was over 25 µM in assay [1]; 19.3 µM in assay [2]; over 25 µM in [3]; over 25 µM in [4]; over 25 µM in [5]; over 25 µM in [6]. Further, the TGI in [7] is over 20.7 µM; in [8], over 25 µM; in [9], over 25 µM; in [10] it was over 25 µM.
`COc1c(OC(C)=O)c(OC(C)=O)cc2c1-c1ccc(OC)c(=O)cc1C(NC(C)=O)CC2` (stereo not given): the TGI is 0.555 µM in [1]; over 48.1 µM in [2]; over 100 µM in assay [3]; over 100 µM in [4]; over 100 µM in assay [5]; over 100 µM in assay [6]. Also, the TGI in assay [7] was over 100 µM; in [8] it was over 100 µM; in assay [9], 0.564 µM; in [10], over 100 µM.
